{"source": "ChEMBL document CHEMBL1135020", "about": "“5-Bromo (or chloro)-6-azido-5,6-dihydro-2' -deoxyuridine and -thymidine derivatives with potent antiviral activity” (Bioorg Med Chem Lett, 2002)", "key": {"CCRF-CEM [1]": {"test_system": "CCRF-CEM", "assay": "In vitro anti-HIV screen using HIV-1 infected CD4 lymphocytes (CEM cell line), determines cytotoxicity", "assay_type": "functional, cell-based", "conditions": "Homo sapiens"}, "Human gammaherpesvirus 4": {"test_system": "Human gammaherpesvirus 4", "assay": "In vitro antiviral activity against Epstein Barr virus (EBV) was determined", "assay_type": "functional, organism-based"}, "Human alphaherpesvirus 1": {"test_system": "Human alphaherpesvirus 1", "assay": "In vitro antiviral activity against Herpes simplex virus (HSV-1) was determined", "assay_type": "functional, organism-based"}, "Human alphaherpesvirus 2": {"test_system": "Human alphaherpesvirus 2", "assay": "In vitro antiviral activity against Herpes simplex virus (HSV-2) was determined", "assay_type": "functional, organism-based"}, "Human betaherpesvirus 5": {"test_system": "Human betaherpesvirus 5", "assay": "In vitro antiviral activity against Human cytomegalovirus (HCMV) was determined", "assay_type": "functional, organism-based"}, "CCRF-CEM [2]": {"test_system": "CCRF-CEM", "assay": "Inhibitory concentration for spectrum antiviral activity against herpes viruses", "assay_type": "functional, cell-based", "conditions": "Homo sapiens"}, "CCRF-CEM [3]": {"test_system": "CCRF-CEM", "assay": "Test was to evaluate selectivity against individual tumor cell line Leukemia (CCRF-CEM)", "assay_type": "functional", "conditions": "Homo sapiens"}, "CAKI-1": {"test_system": "CAKI-1", "assay": "Test was to evaluate selectivity against individual tumor cell lines Renal cancer (CAKI-1)", "assay_type": "functional", "conditions": "Homo sapiens"}, "DMS-114": {"test_system": "DMS-114", "assay": "Test was to evaluate selectivity against individual tumor cell lines Small cell lung cancer (DMS114)", "assay_type": "functional", "conditions": "Homo sapiens"}, "M19-MEL [4]": {"test_system": "M19-MEL", "assay": "Test was to evaluate selectivity against individual tumor cell lines Melanoma (M19-MEL)", "assay_type": "functional", "conditions": "Homo sapiens"}, "Malme-3M [5]": {"test_system": "Malme-3M", "assay": "Test was to evaluate selectivity against individual tumor cell lines Melanoma (MALME-3M)", "assay_type": "functional", "conditions": "Homo sapiens"}, "SK-MEL-5 [6]": {"test_system": "SK-MEL-5", "assay": "Test was to evaluate selectivity against individual tumor cell lines Melanoma (SK-MEL-5)", "assay_type": "functional", "conditions": "Homo sapiens"}, "Human alphaherpesvirus 3": {"test_system": "Human alphaherpesvirus 3", "assay": "In vitro antiviral activity against Varicella zoster virus (VZV) was determined", "assay_type": "functional, organism-based"}, "RPMI-8226": {"test_system": "RPMI-8226", "assay": "Test was to evaluate selectivity against individual tumor cell line Leukemia (RPMI-8226)", "assay_type": "functional", "conditions": "Homo sapiens"}, "Tumor Cell line": {"test_system": "Tumor Cell line", "assay": "Test was to evaluate selectivity against individual tumor cell lines; NS= No selectivity", "assay_type": "functional, cell-based", "conditions": "Homo sapiens"}, "M19-MEL [7]": {"test_system": "M19-MEL", "assay": "est was to evaluate selectivity against individual tumor cell line Melanoma (M19-MEL)", "assay_type": "functional", "conditions": "Homo sapiens"}, "Malme-3M [8]": {"test_system": "Malme-3M", "assay": "est was to evaluate selectivity against individual tumor cell line Melanoma (MALME-3M)", "assay_type": "functional", "conditions": "Homo sapiens"}, "NCI-H522": {"test_system": "NCI-H522", "assay": "Test was to evaluate selectivity against individual tumor cell line Non small cell lung cancer (NCI-H522)", "assay_type": "functional", "conditions": "Homo sapiens"}, "SF-268": {"test_system": "SF-268", "assay": "Test was to evaluate selectivity against individual tumor cell line CNS cancer (SF-268)", "assay_type": "functional", "conditions": "Homo sapiens"}, "SK-MEL-5 [9]": {"test_system": "SK-MEL-5", "assay": "est was to evaluate selectivity against individual tumor cell line Melanoma (SK-MEL-5)", "assay_type": "functional", "conditions": "Homo sapiens"}}, "note": "Calls of active or inactive are those of the source. No cut-off for these calls is given here.", "data": [{"molecule": "Nc1nc2c(ncn2COCCO)c(=O)[nH]1", "note": "[ACYCLOVIR]", "values": [{"measurement": "IC50", "setting": "CCRF-CEM [1]", "value": "> 440", "unit": "µM"}, {"measurement": "EC50", "setting": "Human gammaherpesvirus 4", "value": 3.96, "unit": "µM"}, {"measurement": "EC50", "setting": "Human alphaherpesvirus 1", "value": 3.08, "unit": "µM"}, {"measurement": "EC50", "setting": "Human alphaherpesvirus 2", "value": 6.16, "unit": "µM"}]}, {"molecule": "Nc1nc2c(ncn2COC(CO)CO)c(=O)[nH]1", "note": "[GANCICLOVIR]", "values": [{"measurement": "IC50", "setting": "CCRF-CEM [1]", "value": "> 390", "unit": "µM"}, {"measurement": "EC50", "setting": "Human betaherpesvirus 5", "value": 0.78, "unit": "µM"}]}, {"molecule": "[N-]=[N+]=NC1C(Br)C(=O)NC(=O)N1[C@H]1C[C@H](O)[C@@H](CO)O1", "note": "(some centres undefined)", "values": [{"measurement": "IC50", "setting": "CCRF-CEM [2]", "value": 7.4, "unit": "µM"}, {"measurement": "GI50", "setting": "CCRF-CEM [3]", "value": 38, "unit": "µM"}, {"measurement": "GI50", "setting": "CAKI-1", "value": 66.3, "unit": "µM"}, {"measurement": "IC50", "setting": "CCRF-CEM [1]", "value": 127, "unit": "µM"}, {"measurement": "GI50", "setting": "DMS-114", "value": 90.9, "unit": "µM"}, {"measurement": "EC50", "setting": "Human gammaherpesvirus 4", "value": 46, "unit": "µM"}, {"measurement": "EC50", "setting": "Human alphaherpesvirus 1", "value": 8.28, "unit": "µM"}, {"measurement": "EC50", "setting": "Human alphaherpesvirus 2", "value": 3.42, "unit": "µM"}, {"measurement": "GI50", "setting": "M19-MEL [4]", "value": 91.5, "unit": "µM"}, {"measurement": "GI50", "setting": "Malme-3M [5]", "value": 15.5, "unit": "µM"}, {"measurement": "GI50", "setting": "SK-MEL-5 [6]", "value": 42.2, "unit": "µM"}, {"measurement": "EC50", "setting": "Human alphaherpesvirus 3", "value": 91.4, "unit": "µM"}, {"measurement": "EC50", "setting": "Human betaherpesvirus 5", "value": 11.4, "unit": "µM"}, {"measurement": "GI50", "setting": "RPMI-8226", "value": 19.6, "unit": "µM"}]}, {"molecule": "CC1(Br)C(=O)NC(=O)N([C@H]2C[C@H](O)[C@@H](CO)O2)C1N=[N+]=[N-]", "note": "(some centres undefined)", "values": [{"measurement": "IC50", "setting": "CCRF-CEM [2]", "value": 143, "unit": "µM"}, {"measurement": "IC50", "setting": "CCRF-CEM [1]", "value": 73, "unit": "µM"}, {"measurement": "EC50", "setting": "Human gammaherpesvirus 4", "value": 16, "unit": "µM"}, {"measurement": "EC50", "setting": "Human alphaherpesvirus 1", "value": "> 274", "unit": "µM"}, {"measurement": "EC50", "setting": "Human alphaherpesvirus 2", "value": "> 274", "unit": "µM"}, {"measurement": "Activity", "setting": "Tumor Cell line", "value": "inactive"}, {"measurement": "EC50", "setting": "Human alphaherpesvirus 3", "value": 104, "unit": "µM"}, {"measurement": "EC50", "setting": "Human betaherpesvirus 5", "value": 15, "unit": "µM"}]}, {"molecule": "[N-]=[N+]=NC1C(Cl)C(=O)NC(=O)N1[C@H]1C[C@H](O)[C@@H](CO)O1", "note": "(some centres undefined)", "values": [{"measurement": "IC50", "setting": "CCRF-CEM [2]", "value": 54.6, "unit": "µM"}, {"measurement": "GI50", "setting": "CCRF-CEM [3]", "value": 26.3, "unit": "µM"}, {"measurement": "IC50", "setting": "CCRF-CEM [1]", "value": "> 327", "unit": "µM"}, {"measurement": "EC50", "setting": "Human gammaherpesvirus 4", "value": 9.8, "unit": "µM"}, {"measurement": "EC50", "setting": "Human alphaherpesvirus 1", "value": 0.33, "unit": "µM"}, {"measurement": "EC50", "setting": "Human alphaherpesvirus 2", "value": 1.6, "unit": "µM"}, {"measurement": "GI50", "setting": "M19-MEL [7]", "value": 52.4, "unit": "µM"}, {"measurement": "GI50", "setting": "Malme-3M [8]", "value": 13.1, "unit": "µM"}, {"measurement": "GI50", "setting": "NCI-H522", "value": 5.37, "unit": "µM"}, {"measurement": "GI50", "setting": "SF-268", "value": 93.3, "unit": "µM"}, {"measurement": "EC50", "setting": "Human betaherpesvirus 5", "value": 28.9, "unit": "µM"}, {"measurement": "GI50", "setting": "RPMI-8226", "value": 72.4, "unit": "µM"}, {"measurement": "GI50", "setting": "SK-MEL-5 [9]", "value": 12.3, "unit": "µM"}]}, {"molecule": "CC1(Cl)C(=O)NC(=O)N([C@H]2C[C@H](O)[C@@H](CO)O2)C1N=[N+]=[N-]", "note": "(some centres undefined)", "values": [{"measurement": "IC50", "setting": "CCRF-CEM [2]", "value": 135, "unit": "µM"}, {"measurement": "IC50", "setting": "CCRF-CEM [1]", "value": 113, "unit": "µM"}, {"measurement": "EC50", "setting": "Human gammaherpesvirus 4", "value": "> 12.5", "unit": "µM"}, {"measurement": "EC50", "setting": "Human alphaherpesvirus 1", "value": "> 313", "unit": "µM"}, {"measurement": "EC50", "setting": "Human alphaherpesvirus 2", "value": "> 313", "unit": "µM"}, {"measurement": "Activity", "setting": "Tumor Cell line", "value": "inactive"}, {"measurement": "EC50", "setting": "Human betaherpesvirus 5", "value": "> 50", "unit": "µM"}]}, {"molecule": "O=c1[nH]c(=O)n([C@H]2C[C@H](O)[C@@H](CO)O2)cc1Cl", "note": "[CHLORODEOXYURIDINE]", "values": [{"measurement": "EC50", "setting": "Human alphaherpesvirus 1", "value": 15, "unit": "µM"}]}]}
